Source: patent US10301624B2, “Targeting human satellite II (HSATII)” (The General Hospital Corporation, priority 2014, dated 2019)
Blank lines part the entries; values can stand above or below the molecule they belong to.

Experiments:
Format in all cases: cell-based, human
DLD1 = experiment: Cell viability in 3D non-adherent and 2D adherent culture, DLD1
Experimental: (§1) FIGS. 14A-D. Effect of Locked Nucleic Acids targeting HSATII on TP53 mutant Colorectal Cancer cell lines. […] Error bars represent standard deviation. P-value was calculated using student's two tailed t-test. *represents P<0.05.
(§2) Cells were transfected with LNAs either targeting HSATII or with non-specific control Locked Nucleic Acids at 500 nM concentrations using Lipofectamine 2000 according to manufacturer recommended conditions. Cells were trypsinized 24 hours after transfection and seeded at concentration of 1000 cells per well in 96 well plates either in 2 dimensional or 3 dimensional culture conditions. For 2D conditions, the cells were transferred to cell culture treated 96 well plates and grown in RPMI+10% FBS. For 3D conditions, cells were grown in (RPMI+10% FBS+) in ultra-low attachment 96 well plates.

SW620 = experiment: Cell viability in 3D non-adherent and 2D adherent culture, SW620; conditions: SW620, non-adherent conditions, Nec-1 10 μM
Experimental: as §1, §2

HSATII-chr10 locus = experiment: qPCR analysis on HSATII-chr10 locus after DNase I or RNase A treatment of COLO205 extracts; conditions: COLO205 cells, ddC 100 μM for two weeks vs DMSO
From the text: FIGS. 3A-C. HSATII RNA-to-DNA conversion occurs through a reverse transcription mechanism. (A) qPCR analysis on HSATII-chr10 locus following DNAse I or RNase A treatment and reverse transcription of extracts obtained from COLO205 cells treated with DMSO or 2′, 3′-dideoxycytidine (ddC). (B) RIP lysates prepared from SW620 2D cultures or xenografts were immunoprecipitated with hTERT or IgG antibody, reverse transcribed and validated by qPCR for HSATII and TERC RNA enrichment. (C) qPCR analysis on HSATII-chr10 locus in COLO205 extracts 72 h after non-targeting (siNT) or TERT-targeting (siTERT) siRNA transfection. For all charts, values represent average of at least three independent experiments ±SEM. *P<0.05 (Student's t test).
All colon cancer cell lines were cultured in RPMI-1640+10% FBS+1% Pen/Strep (Gibco/Life Technologies). DMEM with the same supplements was used for 293T cells. For drug treatment, cells were cultured in presence of either DMSO or 100 μM 2′, 3′-dideoxycytidine (ddC, Sigma) for two weeks. […]
RNA was reverse transcribed using a SuperScript III First-Strand Synthesis kit (Invitrogen/Life Technologies) and cDNA was analyzed by qPCR using either Power SYBR-Green PCR Maser Mix or TaqMan Universal Master Mix on an ABI/PRISM 7500 platform (all reagents were from Applied Biosystems/Life Technologies). […]

COLO205 cells = experiment: Proliferation assay (CellTiter-Glo), COLO205
Experimental: FIG. 8. Proliferation assay of DMSO- or ddC-treated COLO205 (top) and HCT116 (bottom) cells. Cells were seeded at a density of 5×10^2 cells/well in a 96-well plate and quantified daily using CellTiter-Glo luminescent cell viability assay.
(§3) For proliferation assays, cells were seeded at a density of 5×10^2 cells/well in a 96-well plate (Corning) in presence of DMSO/ddC (100 μM) or one day after transfection with control/HSATII antisense oligonucleotides. Daily quantification was performed using CellTiter-Glo luminescent cell viability assay (Promega) with a SpectraMax M5 microplate reader (Molecular Devices).
50 nM ON-TARGETplus Non-targeting pool siRNA (Thermo Scientific) and Mission Pre-designed TERT siRNAs (Sigma Aldrich) or 500 nM Negative Control and HSATII LNA antisense oligonucleotides (Exiqon) were electroporated into COLO205 cells according to the Neon Transfection System (Invitrogen/Life Technology) instructions using the following conditions: 1600V; pulse width 10; 3 pulses. 500 nM Negative Control/HSATII LNA antisense oligonucleotides were transfected in HCT116 and SW620 cells using Lipofectamine 2000 (Invitrogen/Life Technologies) according to the manufacturer's instructions.

HCT116 cells = experiment: Proliferation assay (CellTiter-Glo), HCT116; conditions: cells without endogenous HSATII expression, adherent growth, ddC 100 μM vs DMSO
Experimental: as §3, with “FIG. 8. Proliferation assay of DMSO- or ddC-treated COLO205 (top) and HCT116 (bottom) cells. Cells were seeded at a density of 5×10^2 cells/well in a 96-well plate and quantified daily using CellTiter-Glo luminescent cell viability assay. For” for “For”, “control/[…]” for “control/HSATII”

HCT116 = experiment: Cell growth in 3D and 2D culture, HCT116 (with or without shRNA TP53 knockdown); conditions: for susceptibility to ddC: HCT116 with shRNA TP53 knockdown
Experimental: (§4) FIGS. 15A-D. Effect of Locked Nucleic Acids targeting HSATII on TP53 wild type Colorectal Cancer cell lines. […] Error bars represent standard deviation. P-value was calculated using student's two tailed t-test.
FIGS. 19A-F. HCT116 cells are resistant to HSATII targeting and Reverse Transcriptase inhibition. […] Error bars represent standard deviation. P-value was calculated using student's two tailed t-test.
as §2
(§5) Stable cell lines carrying either one of two shRNAs targeting TP53, or a non-target shRNA using lentiviral infection, were generated.

HCT8 = experiment: Cell growth in 3D and 2D culture, HCT8 (with or without shRNA TP53 knockdown)
Experimental: as §4
FIGS. 18A-F. TP53 knockdown sensitizes HCT8 cells to HSATII targeted Locked Nucleic Acids and Reverse Transcriptase inhibition. HCT8 colorectal cancer cells are resistant to the reverse transcriptase inhibitor ddC under 3D (A) and 2D (D) growth conditions. shRNA mediated knockdown of TP53 sensitizes the cells to reverse transcriptase inhibition under 3D (B-C), but not 2D (E-F) growth conditions. TP53 knockdown sensitizes HCT8 cells to HSATII targeted Locked Nucleic Acids under 3D (B-C), but not 2D (E-F) growth conditions. Error bars represent standard deviation. P-value was calculated using student's two tailed t-test. *represents P<0.05, **represents P<0.01.
as §2, §5

Molecule: CN1C(=O)C(Cc2c[nH]c3ccccc23)NC1=S (stereo not drawn) [Nec-1, Necrostatin-1]
rescue of HSATII LNA-induced growth inhibition (DLD1; DLD1, non-adherent conditions, Nec-1 10 μM): rescued
rescue of HSATII LNA-induced growth inhibition (SW620): rescued

HSATII RNA species (HSATII-chr10 locus): increasing
levels of endogenous HSATII rdDNA (HSATII-chr10 locus): reduced
Molecule: Nc1ccn([C@H]2CC[C@@H](CO)O2)c(=O)n1 [ddC, 2′, 3′-dideoxycytidine]
cell proliferation (COLO205 cells; COLO205, ddC 100 μM vs DMSO): suppressed
cell proliferation (HCT116 cells): no effect
growth inhibition (DLD1; DLD1, 3 dimensional culture, ddC 5 μM): significant growth inhibition
sensitivity to ddC (HCT116; HCT116, 2D growth conditions): resistant
sensitivity to ddC (HCT116; HCT116, 3D growth conditions): resistant
susceptibility to ddC (HCT116; 2D culture): resistance
susceptibility to ddC (HCT116; 3D culture): resistance
sensitivity to ddC (HCT8; HCT8, 2D growth conditions): resistant
sensitivity to ddC (HCT8; HCT8, 3D growth conditions): resistant
growth inhibition (HCT8; HCT8 with shRNA TP53 knockdown, 3D culture, ddC): significant growth inhibition

Molecule: SEQ ID NO:24: Locked nucleic acids (LNA) probes commercially purchased from Exiqon (GATTCCATTCGATGAT) specifically targeting HSATII (LNA-modified, pattern not given here)
cell proliferation (COLO205 cells; COLO205, 500 nM LNA antisense oligonucleotide vs negative control, five days): affected
